This is an account of results in US8278349B2, “Cancer treatment using FTS and 2-deoxyglucose” (Ramot at Tel-Aviv University Ltd., priority 2005, dated 2012).

Test [1] concerns primary pancreatic tumor cell line pp161. The experiment in a line: Cell death by Hoechst 33258 staining, pp161. It counts as cell-based. The conditions noted are these: single-drug or combined treatment. Here is the method:
(§1) All materials for cell culture and determination of cell growth and death were detailed in earlier publications. [Blum, R., Jacob-[…]. and Kloog, Y., Cancer Res 65:999-1006 (2005); […]., Jacob-[…]. and Kloog, Y., Clin Cancer Res 11:4321-30 (2005)]. FTS was provided by Concordia Pharmaceuticals, Inc. 2DG was purchased from Sigma (cat #D3179). Cells were maintained in DMEM/10% FCS at a constant temperature of 37° C. in a humidified atmosphere of 95% air/5% CO2. Cells were plated in 1 ml DMEM/5% FCS at a density of 10,000 in 24 wells plates, and treated 24 hours (h) later with 50 μM or 75 μM FTS or with the vehicle (0.1% Me2SO). Forty-eight (48) h later the medium was replaced by a medium containing either 10 mM glucose or 5 mM glucose plus 5 mM 2DG. […] Following incubation for 24 or 48 h, as specified in each experiment, the cells were stained with Hoechst 33258 (1 μg/mL) to determine the extent of cell death; the cells were incubated with the reagent for 5 min and stained nuclei were visualized by a fluorescence microscope. […] Data were collected by imaging each well then analyzed as follows: the total number of cells was calculated of the phase contrast images and the number of dead cells was calculated of the fluorescence images. The percentage of Hoechst stained dead cells ([dead cells/total number of cells]×100) was calculated and presented as means±SD.

For test [2], the system named is pancreatic carcinoma cell line panc-1. The experiment in a line: Cell number from phase contrast images, panc-1. It counts as cell-based. Here is the method:
(§2) All materials for cell culture and determination of cell growth and death were detailed in earlier publications. [Blum, R., Jacob-Hirsch, J., Amariglio, N., Rechavi, G. and Kloog, Y., Cancer Res 65:999-1006 (2005); Yaari, S., Jacob-Hirsch, J., Amariglio, N., Haklai, R., Rechavi, G. and Kloog, Y., Clin Cancer Res 11:4321-30 (2005)]. FTS was provided by Concordia Pharmaceuticals, Inc. 2DG was purchased from Sigma (cat #D3179). Cells were maintained in DMEM/10% FCS at a constant temperature of 37° C. in a humidified atmosphere of 95% air/5% CO2. Cells were plated in 1 ml DMEM/5% FCS at a density of 10,000 in 24 wells plates, and treated 24 hours (h) later with 50 μM or 75 μM FTS or with the vehicle (0.1% Me2SO). […] Following incubation for 24 or 48 h, as specified in each experiment, the cells were stained with Hoechst 33258 (1 μg/mL) to determine the extent of cell death; the cells were incubated with the reagent for 5 min and stained nuclei were visualized by a fluorescence microscope. […]
(§3) All experiments were performed and repeated at least four times. Data were collected by imaging each well then analyzed as follows: the total number of cells was calculated of the phase contrast images and the number of dead cells was calculated of the fluorescence images. The percentage of Hoechst stained dead cells ([dead cells/total number of cells]×100) was calculated and presented as means±SD.

Test [3] concerns primary pancreatic tumor cell line pp 78. The experiment in a line: Cell death by Hoechst 33258 staining, pp 78. It counts as cell-based. The note with it: single-drug or combined treatment. As to the method: as §1
In test [4] the test system is pancreatic carcinoma cell line panc-1. The experiment in a line: Cell death by Hoechst 33258 staining, panc-1. Type of test: cell-based. The note with it: for percentage of dead cells: panc-1. As to the method: All materials for cell culture and determination of cell growth and death were detailed in earlier publications. [Blum, R., Jacob-[…]. and Kloog, Y., Cancer Res 65:999-1006 (2005); […]., Jacob-[…]. and Kloog, Y., Clin Cancer Res 11:4321-30 (2005)]. FTS was provided by Concordia Pharmaceuticals, Inc. 2DG was purchased from Sigma (cat #D3179). Cells were maintained in DMEM/10% FCS at a constant temperature of 37° C. in a humidified atmosphere of 95% air/5% CO2. Cells were plated in 1 ml DMEM/5% FCS at a density of 10,000 in 24 wells plates, and treated 24 hours (h) later with 50 μM or 75 μM FTS or with the vehicle (0.1% Me2SO). Forty-eight (48) h later the medium was replaced by a medium containing either 10 mM glucose or 5 mM glucose plus 5 mM 2DG. The FTS treated groups were replenished with the drug and the controls with 0.1% Me2SO. Following incubation for 24 or 48 h, as specified in each experiment, the cells were stained with Hoechst 33258 (1 μg/mL) to determine the extent of cell death; the cells were incubated with the reagent for 5 min and stained nuclei were visualized by a fluorescence microscope. Additionally, phase contrast images were taken. All experiments were performed and repeated at least four times. Data were collected by imaging each well then analyzed as follows: the total number of cells was calculated of the phase contrast images and the number of dead cells was calculated of the fluorescence images. The percentage of Hoechst stained dead cells ([dead cells/total number of cells]×100) was calculated and presented as means±SD.

For test [5], the system named is primary pancreatic tumor cell line pp109. The experiment in a line: Cell number from phase contrast images, pp109. Type of test: cell-based. As to the method:
as §2, §3

For test [6], the system named is primary pancreatic tumor cell line pp 78. The experiment in a line: Cell number from phase contrast images, pp 78. Type of test: cell-based. As to the method:
as §2, §3

Test [7] relates to human glioblastoma cell line U373. The experiment in a line: Cell death by Hoechst 33258 staining, U373. The conditions noted are these: single or combined treatment. Type of test: cell-based. As to the method:
as §1

In test [8] the test system is primary pancreatic tumor cell line pp109. The experiment in a line: Cell death by Hoechst 33258 staining, pp109. It counts as cell-based. The conditions noted are these: single-drug or combined treatment. As to the method:
as §1

In test [9] the test system is human glioblastoma cell line U373. The experiment in a line: Cell number from phase contrast images, U373. Type of test: cell-based. The conditions noted are these: single or combined treatment. Here is the method: as §1
The test system of test [10] is primary pancreatic tumor cell line pp161. The experiment in a line: Cell number from phase contrast images, pp161. It counts as cell-based. As to the method:
as §2, §3

Test [11] has as its system human glioblastoma cell line U87. The experiment in a line: Cell number from phase contrast images, U87. Type of test: cell-based. The conditions noted are these: single or combined treatment. Here is the method: as §1
For test [12] the test system is unchanged. The experiment in a line: Cell death by Hoechst 33258 staining, U87. The note with it: single or combined treatment. It counts as cell-based. Here is the method:
as §1

In another test the test system is GBM cells. The conditions noted are these: reported (Blum 2005; Yaari 2005); cited from earlier work.
The subject of a further test is panc-1 cells. The conditions noted are these: cited from earlier work.
The test system of the next test is Mia Paca cells. The conditions noted are these: cited from earlier work.
[13] abbreviates: previously shown (Kloog and Cox 2000).

SMILES strings stand for the structures.

On to `OCC1OC(O)CC(O)C1O` [2DG, 2-deoxy-D-glucose, reference compound], for which the “cell death above the levels observed in the controls” value in test [1] is listed as “did not cause a significant increase in death”; in test [3] it was “did not cause a significant increase in death”; in [8], “induced death”. Also, the “decrease in cell number” value in test [2] (2DG alone, compared with FTS) is on record as “decrease in cell number, but to a lower extent”; in test [5] (2DG alone, compared with FTS), “decrease in cell number, but to a lower extent”; in test [6] (2DG alone, compared with FTS), “decrease in cell number, but to a lower extent”; in [10] (2DG alone, compared with FTS) it was “decrease in cell number, but to a lower extent”. Also, in [4] (2DG (5 mM) combined with equimolar glucose, cell death similar to controls (3%)), the cell survival result is given as “did not affect cell survival”. In [4] (2DG alone (5 mM glucose plus 5 mM 2DG)), the “percentage of dead cells” value worked out at 3%. For the same compound, the cell death entry in [7] and in [12] was “no significant increase in cell death” each time. Also, the total cell number entry in test [9] and in [11] was “induced a decrease in total cell number” in each case.
For `CC(C)=CCC/C(C)=C/CC/C(C)=C/CSc1ccccc1C(=O)O` [FTS, farnesylthiosalicylic acid], the “cell death above the levels observed in the controls” value was “did not cause a significant increase in death” in [1], “did not cause a significant increase in death” in test [3] and “induced death” in test [8]. In [2] (75 μM FTS alone), the “decrease in cell number” value is reported as roughly 2 fold. Besides, the “percentage of dead cells” value in test [4] (50 μM FTS alone (10 mM glucose)) stood at 4%; in test [4] (75 μM FTS alone (10 mM glucose)), 7%. Besides, in the test with GBM cells, the “growth arrest and cell death” value was “induce both growth arrest and cell death”. Further, the “decrease in the total number of cells” value in test [5] (75 μM FTS alone), in test [6] (75 μM FTS alone) and in [10] (75 μM FTS alone) was roughly 2 fold each time. Besides, the cell death entry with panc-1 cells (FTS alone) was “did not induce death”; in test [7], “no significant increase in cell death”; with Mia Paca cells (FTS alone) it was “did not induce death”; in [12], “no significant increase in cell death”. The “anchorage-dependent and anchorage-independent growth” value is “inhibit anchorage-dependent and anchorage-independent growth” with panc-1 cells (setting [13]); “inhibit anchorage-dependent and anchorage-independent growth” in the test on Mia Paca cells (setting [13]). The total cell number entry in test [9] and in [11] was “induced a decrease in total cell number” throughout.
